Holding throughout (type): cell-based
Holding throughout (settings): 6 hours

In assay [1] the test system is C-myc. Nature of the assay: TAQMAN PCR gene expression analysis, MCF-7 cells. From the text:
MCF-7 cells are estrogen responsive breast adenocarcinoma cells that have been used previously as a model system for evaluation of breast cancer drugs. Initial studies have examined the effect of an anti-estrogen, tamoxifen, on the estradiol response of MCF-7 cells. Estradiol stimulates cell proliferation through the G1 phase in synchronized cell growth studies. Tamoxifen treatment of cells inhibits the induction of several genes that occur upon estradiol treatment by blocking estrogen receptor cofactors required for transcription. […] TAQMAN® PCR was performed to measure the changes in expression levels for each of the monitored genes across the treatments.
The experimental protocols for estradiol and tamoxifen treatment have been described in detail elsewhere (Wosikowski et al., Int. J. Cancer 53:290-297 (1993)). […] The purity and integrity of the total RNA was assessed by the 260/280 absorbance and the 28s/18s RNA ratios.
(§1) The ability to multiplex target nucleic acids under study was confirmed by TAQMAN®, analysis of the singleplex and multiplex amplifications. […] Changes in expression level between samples were determined by comparing the brightness of gene-spots measured for each target nucleic acid relative to a reference target nucleic acid, β-actin. […]
A general note: Quantitative PCR measures a nucleic acid by following its amplification.

Assay [2] relates to C-myc. Nature of the assay: Flow-Thru Chip gene expression analysis after multiplex RT-PCR, MCF-7 cells.
From the text: (§2) MCF-7 cells are estrogen responsive breast adenocarcinoma cells that have been used previously as a model system for evaluation of breast cancer drugs. Initial studies have examined the effect of an anti-estrogen, tamoxifen, on the estradiol response of MCF-7 cells. Estradiol stimulates cell proliferation through the G1 phase in synchronized cell growth studies. Tamoxifen treatment of cells inhibits the induction of several genes that occur upon estradiol treatment by blocking estrogen receptor cofactors required for transcription. The Flow-Thru Chip™has been used as an analysis platform for a set of genes reported in the literature as differentially regulated in the MCF-7 system under estradiol and tamoxifen treatment. TAQMAN® PCR was performed to measure the changes in expression levels for each of the monitored genes across the treatments.
(§3) The experimental protocols for estradiol and tamoxifen treatment have been described in detail elsewhere (Wosikowski et al., Int. J. Cancer 53:290-297 (1993)). In this study MCF-7 (ATTC, Manassas, Va.) cells were maintained in MEM alpha medium supplemented with 10% heat-inactivated fetal bovine serum, Penicillin-Streptomycin and 10 μg/ml bovine insulin (complete medium) (Life Technologies, Gaithersburg, Md.). […] The purity and integrity of the total RNA was assessed by the 260/280 absorbance and the 28s/18s RNA ratios.
(§4) Analysis of genes under test by the Flow-Thru Chip™ required amplification from the total RNA. […] The appropriate number of cycles for each grouping of target nucleic acids was determined empirically to assure that all targets in the group were in the linear dynamic range of the chip and had not reached primer limitation in the PCR amplification. […]
as §1

Assay [3] has as its system 12 target nucleic acids in MCF-7 cells. In words: Change in expression level of 12 target nucleic acids across cell treatments (Flow-Thru Chip and TAQMAN).
From the text: as §2, §3, §4, §1

The structures appear in SMILES notation.

`C[C@]12CC[C@@H]3c4ccc(O)cc4CC[C@H]3[C@@H]1CC[C@@H]2O` [estradiol, 17-beta-estradiol]: the C-myc fold up-regulation was found to be 27±6 fold with C-myc [1] (10 nM 17-beta-estradiol, relative to vehicle control (=1.0), reference β-actin, TAQMAN) and 23±4 fold in the assay with C-myc [2] (10 nM 17-beta-estradiol, relative to vehicle control (=1.0), reference β-actin, Flow-Thru Chip). For the same compound, the “effect on expression of the target nucleic acids” value in assay [3] (10 nM 17-beta-estradiol) is “induces expression”.

For the compound `CC/C(=C(\c1ccccc1)c1ccc(OCCN(C)C)cc1)c1ccccc1` [tamoxifen], the C-myc fold increase entry in the assay on C-myc [1] (1 μM tamoxifen in conjunction with 10 nM 17-beta-estradiol, TAQMAN (same by both methods)) was “roughly 8 fold”; in the assay with C-myc [2] (1 μM tamoxifen in conjunction with 10 nM 17-beta-estradiol, Flow-Thru Chip (same by both methods)) it was “roughly 8 fold”. Moreover, in the assay with C-myc [2] (1 μM tamoxifen alone, method not stated), the “influence on C-myc expression” value is “no influence”. For the same compound, the “effect on estradiol induction of the set of target nucleic acids” value in assay [3] (1 μM tamoxifen added to 10 nM 17-beta-estradiol) was “suppresses the induction”. In addition, the “influence on expression of any of the target nucleic acids” value in assay [3] (1 μM tamoxifen alone) is “little influence”.

Values taken from patent US20050095606A1, “Partially double-stranded nucleic acids, methods of making, and use thereof” (priority 2001, published 2005).
